We go through twelve compounds from ChEMBL document CHEMBL1153472 (Bioorg Med Chem Lett, 2009).

Data set [1] addresses Beta-1 adrenergic receptor (Homo sapiens, UniProt P08588). Put plainly: Agonist activity at human recombinant adrenergic beta-1 receptor expressed in CHO cells assessed as stimulation of cAMP level after 1 hr by enzyme immunoassay. The format is functional, cell-based. On the technique in general: Changes in cAMP serve as a functional read-out for many G protein-coupled receptors.

Data set [2] in a line: AUC (0 to 24 hrs) in po dosed dog. The format is ADME, organism-based, Canis lupus familiaris. The following applies: plasma. Further details: time < 24 hr, route oral.
Data set [3] is described as follows: Cmax in po dosed dog. In kind it is ADME, organism-based, Canis lupus familiaris. Set-up: route oral. The following applies: in vivo.
Data set [4] in a line: Half life in iv dosed dog. The format is ADME, organism-based, Canis lupus familiaris. The following applies: in vivo.
Data set [5] concerns the target Beta-3 adrenergic receptor (Homo sapiens, UniProt P13945). Put plainly: Agonist activity at human recombinant adrenergic beta3 receptor expressed in CHO cells assessed as stimulation of cAMP level after 1 hr by enzyme immunoassay. The format is functional, cell-based.
The nature of data set [6]: Oral bioavailability in dog. In kind it is ADME, organism-based, Canis lupus familiaris. The following applies: in vivo.
Data set [7] can be described thus: Total clearance in iv dosed dog. As to conditions: in vivo. In kind it is ADME, organism-based, Canis lupus familiaris.
The target in data set [8] is Beta-2 adrenergic receptor (Homo sapiens, UniProt P07550). Put plainly: Agonist activity at human recombinant adrenergic beta2 receptor expressed in CHO cells assessed as stimulation of cAMP level after 1 hr by enzyme immunoassay. In kind it is functional, cell-based.
Chain of Beta-2 adrenergic receptor (P07550 whole entry): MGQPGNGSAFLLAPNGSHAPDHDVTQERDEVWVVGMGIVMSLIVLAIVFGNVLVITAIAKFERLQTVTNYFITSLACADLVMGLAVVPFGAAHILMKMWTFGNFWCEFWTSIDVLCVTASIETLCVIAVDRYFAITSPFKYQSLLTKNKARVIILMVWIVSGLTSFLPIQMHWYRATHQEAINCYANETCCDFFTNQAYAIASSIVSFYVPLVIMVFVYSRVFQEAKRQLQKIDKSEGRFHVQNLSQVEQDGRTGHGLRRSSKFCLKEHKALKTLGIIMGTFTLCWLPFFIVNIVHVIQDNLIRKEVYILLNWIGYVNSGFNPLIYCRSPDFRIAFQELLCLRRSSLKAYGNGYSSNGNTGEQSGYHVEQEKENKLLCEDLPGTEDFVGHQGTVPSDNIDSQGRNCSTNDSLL
A further data set deals with Canis familiaris. Put plainly: Inhibition of carbachol-induced increase in intravesical pressure in intraduodenally dosed Beagle dog overactive bladder model administered after carbachol challenge followed by reinjection of carbachol 30 mins post drug dose measured for 180 mins. As to conditions: Canis lupus familiaris, intraduodenal. In kind it is functional.
The target of data set [9] is Beta-3 adrenergic receptor (Canis lupus familiaris, UniProt O02662). Put plainly: Agonist activity at dog recombinant adrenergic beta3 receptor expressed in CHO cells assessed as stimulation of cAMP level after 1 hr by enzyme immunoassay. The format is functional, cell-based.
Chain of Beta-3 adrenergic receptor (Canis lupus familiaris, UniProt O02662) (O02662 whole entry): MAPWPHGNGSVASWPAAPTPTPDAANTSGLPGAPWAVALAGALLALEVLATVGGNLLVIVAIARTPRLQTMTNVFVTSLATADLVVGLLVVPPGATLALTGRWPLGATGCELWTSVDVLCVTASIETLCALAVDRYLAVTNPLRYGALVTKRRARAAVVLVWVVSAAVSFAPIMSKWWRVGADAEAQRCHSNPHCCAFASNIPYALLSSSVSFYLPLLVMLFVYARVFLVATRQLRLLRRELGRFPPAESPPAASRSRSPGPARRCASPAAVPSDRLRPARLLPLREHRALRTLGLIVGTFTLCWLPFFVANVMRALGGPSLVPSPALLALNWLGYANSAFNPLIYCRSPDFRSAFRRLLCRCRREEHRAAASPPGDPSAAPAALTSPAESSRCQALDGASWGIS
Data set [10] can be described thus: Protein binding in dog. The format is ADME, organism-based, Canis lupus familiaris. The following applies: in vivo, read-out: PB (converted).

Each structure is given as a SMILES string.

Chain of Beta-1 adrenergic receptor (P08588 whole entry): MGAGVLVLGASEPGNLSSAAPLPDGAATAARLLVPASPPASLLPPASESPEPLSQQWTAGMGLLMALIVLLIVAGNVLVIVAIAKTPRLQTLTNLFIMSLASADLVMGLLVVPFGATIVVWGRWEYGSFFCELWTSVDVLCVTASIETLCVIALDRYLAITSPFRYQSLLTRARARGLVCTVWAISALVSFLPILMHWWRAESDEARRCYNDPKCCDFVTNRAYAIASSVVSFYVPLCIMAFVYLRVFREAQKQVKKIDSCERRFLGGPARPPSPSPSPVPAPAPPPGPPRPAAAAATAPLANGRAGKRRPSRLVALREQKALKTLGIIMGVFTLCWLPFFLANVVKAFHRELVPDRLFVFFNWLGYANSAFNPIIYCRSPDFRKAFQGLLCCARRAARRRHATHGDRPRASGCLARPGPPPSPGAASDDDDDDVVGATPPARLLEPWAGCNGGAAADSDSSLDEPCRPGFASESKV
Chain of Beta-3 adrenergic receptor (Homo sapiens, UniProt P13945) (P13945 whole entry): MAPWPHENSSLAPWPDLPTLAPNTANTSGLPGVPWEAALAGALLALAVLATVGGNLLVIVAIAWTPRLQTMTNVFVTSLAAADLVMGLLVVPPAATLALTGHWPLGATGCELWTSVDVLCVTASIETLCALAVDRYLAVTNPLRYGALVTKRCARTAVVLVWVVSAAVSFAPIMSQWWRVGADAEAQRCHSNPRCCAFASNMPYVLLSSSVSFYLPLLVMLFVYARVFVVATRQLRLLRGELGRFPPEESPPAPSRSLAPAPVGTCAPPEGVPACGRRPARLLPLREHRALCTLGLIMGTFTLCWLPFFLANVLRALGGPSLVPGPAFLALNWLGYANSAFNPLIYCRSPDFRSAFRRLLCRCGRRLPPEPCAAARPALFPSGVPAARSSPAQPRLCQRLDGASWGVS

Broadly, the EC50 is the midpoint of the concentration-response curve. The term AUC(0-t) denotes the area under the concentration-time curve up to a stated or last time point. A higher AUC(0-t) goes with high exposure. As a reminder, the Cmax is the peak of the concentration-time curve. What is called half-life is the time needed for the level to fall by half in the phase considered. A higher half-life goes with slow loss. As a reminder, the bioavailability is dose-corrected exposure relative to a reference, in per cent. The low end stands for poor availability, the high end for good availability. What is called clearance is the rate of elimination divided by the concentration. Read a low clearance as a low capacity for elimination. As to `CC(C)Oc1cc(-c2ccc(CCNC[C@H](O)c3cccc(N)c3)cc2)ccc1C(=O)NS(C)(=O)=O`, the EC50 was above 1000 nM in data set [1] and 6 nM in [5]. Also, the AUC(0-t) at 24 h in data set [2] was found to be 143 ng·h/mL. Moreover, the Cmax in [3] was 17.2 ng/mL. The compound also gave a half-life in [4] of 4.9 h. For the same compound, the bioavailability in data set [6] is 46%. Moreover, in data set [7], the clearance is 5.1 mL/min/kg.
For the compound `CC(C)Cc1cc(-c2ccc(C[C@@H](C)NC[C@H](O)c3ccccc3)cc2)ccc1C(=O)NS(C)(=O)=O`, the EC50 in data set [1] was 73 nM; in data set [5], 0.1 nM.
On to `CC(C)Oc1cc(-c2ccc(CCNC[C@H](O)c3ccc(N)cc3)cc2)ccc1C(=O)NS(C)(=O)=O`, for which the EC50 in [1] was above 1000 nM.
In the case of `CC(C)Oc1cc(-c2ccc(CCN[C@@H](C)[C@H](O)c3cccc(O)c3)cc2)ccc1C(=O)NS(C)(=O)=O`, the figures for the EC50 in data set [1] and in data set [5] were 130 nM and 0.044 nM, respectively. For the same compound, the AUC(0-t) at 24 h in [2] stood at 7.3 ng·h/mL. In addition, the Cmax in data set [3] turned out to be 2.9 ng/mL.
Take `COc1ccc([C@@H](O)[C@H](C)NCCc2ccc(-c3ccc(C(=O)NS(C)(=O)=O)c(OC4CCCCC4)c3)cc2)cc1`: the results for the EC50 in data set [1] and in [5] were above 1000 nM and 28 nM, respectively.
In the case of `CS(=O)(=O)NC(=O)c1ccc(-c2ccc(C[C@@H](CO)NC[C@H](O)c3ccccc3)cc2)cc1OC1CCCCC1`, the EC50 in data set [1] was above 1000 nM; in [5] it was 0.82 nM. For the same compound, the AUC(0-t) at 24 h in data set [2] stood at 654 ng·h/mL. In [3], this compound had a Cmax of 59.1 ng/mL. Also, the half-life in [4] was 5 h. Further, the bioavailability in [6] amounted to 95%. The compound also gave a clearance in data set [7] of 2.4 mL/min/kg.
`C[C@H](NCCc1ccc(-c2ccc(C(=O)NS(C)(=O)=O)c(OC3CCCCC3)c2)cc1)[C@H](O)c1ccc(O)cc1`: the EC50 in data set [1] was 110 nM; in data set [8] it was above 10000 nM; in data set [5] it was 0.35 nM. In [2], this compound displayed an AUC(0-t) at 24 h of 39.7 ng·h/mL. The Cmax in data set [3] amounted to 5.3 ng/mL. The half-life in data set [4] is 3.5 h. This compound also had a bioavailability in data set [6] of 25%. This compound also registered a clearance in data set [7] of 11 mL/min/kg.
For `CS(=O)(=O)NC(=O)c1ccc(-c2ccc(CCNC[C@H](O)c3ccc(N)cc3)cc2)cc1OC1CCCCC1`, the EC50 in [1] was above 1000 nM.
In general, ED50 refers to the midpoint of the dose-response relation. A higher ED50 goes with weaker potency. For the compound `CC(C)Oc1cc(-c2ccc(CCN[C@@H](C)[C@H](O)c3ccc(O)cc3)cc2)ccc1C(=O)NS(C)(=O)=O`, the EC50 in data set [1] is 290 nM; in data set [9], 1 nM; in data set [8], above 10000 nM; in data set [5] it was 0.16 nM. Further, in [2], the AUC(0-t) at 24 h came out at 117 ng·h/mL. Also, in the data set with Canis familiaris, the ED50 was 5.9 mg/kg. The fraction unbound in data set [10] was 0.1. Moreover, the peak level in [3] (Cmax) was 23.2 ng/mL. Besides, the half-life in data set [4] is 6.7 h. Moreover, the bioavailability in data set [6] came out at 56%. The same compound came in with a clearance in data set [7] of 7.9 mL/min/kg.
Regarding `CC(=O)Nc1ccc([C@@H](O)CNCCc2ccc(-c3ccc(C(=O)NS(C)(=O)=O)c(OC4CCCCC4)c3)cc2)cn1`, the results for the EC50 in [1] and in data set [5] were above 1000 nM and 0.23 nM, respectively. In data set [2], the AUC(0-t) at 24 h was 86.5 ng·h/mL. The Cmax in data set [3] is 16.2 ng/mL. Besides, the half-life in [4] was 1.8 h. For the same compound, the bioavailability in data set [6] came to 43%. In [7], this compound yielded a clearance of 8.9 mL/min/kg.
As for `CS(=O)(=O)NC(=O)c1ccc(-c2ccc(CCNC[C@H](O)c3cccc(N)c3)cc2)cc1OC1CCCCC1`, the results for the EC50 in data set [1] and in data set [5] were above 1000 nM and 1.2 nM, respectively. This compound also showed an AUC(0-t) at 24 h in data set [2] of 79.3 ng·h/mL. Also, the Cmax in [3] was 6.1 ng/mL.
The corresponding values for `CC(C)Oc1cc(-c2ccc(CCNC[C@H](O)c3ccc(O)c(NS(C)(=O)=O)c3)cc2)ccc1C(=O)NS(C)(=O)=O` are 150 nM, 0.26 nM, 4.4 ng·h/mL and 1.1 ng/mL.
